The values below come from patent US20240425523A1, “Compounds for the Degradation of EGFR Kinase” (Beigene Switzerland GMBH, priority 2023, published 2024).

The IC50 is the midpoint of a concentration-inhibition curve. What is called DC50 is the concentration at which degradation of the target reaches its halfway point. The Dmax is the largest share of the target that was removed.

Common to all, as to type: cell-based
The target in assay [1] is T1, p-EGFR L858R (BaF3-L858R cells) (Homo sapiens, UniProt P00533, L858R).
T1 construct: host or cells: BaF3
Kind of assay: Cell p-EGFR inhibition assay, HTRF, BaF3-L858R cells. To be noted: 16 h treatment; for Imax (%): maximum percentage of pEGFR inhibition; for IC50: pEGFR inhibition. As to the method:
BaF3-L858R (abbv. L858R) cell were purchased from Kangyuan Bochuang Biotechnology (Beijing) Co., Ltd.
(§1) H1975-#23 and BaF3-L858R cells are treated with compounds diluted in 0.1% DMSO cell culture medium on day 2, incubate for 16 h, 37° C., 5% CO2. the final concentration of compounds in all assay is start with 10 uM, 5-fold dilution, total 8 doses were included.
(§2) After 16 h treatment, for H1975-#23 cells, add 50 ul HTRF 1× lysis buffer to each well; for BaF3-L858R cells, add 20 μl 4× lysis buffer to each well; seal the plate and incubate 1 hour at room temperature on a plate shaker; Once the cells are lysed, 16 μL of cell lysate are transferred to a PE 384-well HTRF detection plate; 4 μL of pre-mixed HTRF antibodies are added to each well; Cover the plate with a plate sealer, spin 1000 rpm for 1 min, Incubate overnight at room temperature; Read on BMG PheraStar with HTRF protocol (337 nm-665 nm-620 nm).
(§3) High control=Cell group with added DMSO and without compound, indicating microplate readings without p-EGFR inhibited.
(§4) Imax is the maximum percentage of inhibition.
(§5) The IC50 value of a compound can be obtained by fitting the following equation.
(§6) Wherein, X and Y are known values, and IC50, Hillslope, Top and Bottom are the parameters obtained by fitting with software. […] The experimental data were fitted by calculating and analyzing with Dotmatics data analysis software.

In assay [2] the target is T2, EGFR-L858R/C797S (H1975-clone #8 cells) (Homo sapiens, UniProt P00533, C797S/L858R).
T2 construct: expressed in transfected cells; host or cells: H1975 (endogenous EGFR knocked out, clone #8)
Put plainly: Cell degradation of EGFR, HTRF assay, H1975-clone#8 (L858R/C797S) cells. Particulars: 16 h treatment; for DC50: EGFR degradation; for Dmax: maximum percentage of degradation. In general terms: Time-resolved FRET reads energy transfer from a long-lived donor to a nearby acceptor.

Assay [3] addresses p-EGFR Del19/C797S (H1975-clone #23 cells) (Homo sapiens, UniProt P00533). Put plainly: Cell p-EGFR inhibition assay, HTRF, H1975-clone#23 (DEL19/C797S) cells. To be noted: 16 h treatment; for Imax (%): maximum percentage of pEGFR inhibition; for IC50: pEGFR inhibition. As to the method:
The EGFR over-expressed cells then underwent knockout, in which the EGFR targeting sgRNA was designed to only target the endogenous EGFR copies and preserve the exogenous EGFR copies. Followed by the knockout, the edited H1975 cells were seeded in 96 well plates at the concentration of 1 cell/well, cultured for about 2 weeks to allow single clones formation. The formed clones were screened by DNA sequencing and whole exon sequencing analysis for the desired edition.
as §1, §2, §3, §4, §5, §6

Assay [4] addresses T3, EGFR L858R (BaF3-L858R cells) (Homo sapiens, UniProt P00533, L858R).
T3 construct: host or cells: BaF3
Put plainly: Cell degradation of EGFR, HTRF assay, BaF3-L858R cells. To be noted: 16 h treatment; for DC50: EGFR degradation; for Dmax: maximum percentage of degradation. In short, it runs like this:
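BaF3-L858R cells treated 16 h at 37° C, 5% CO2 with compound (top 10 uM final, 5-fold, 8 doses, 0.1% DMSO). DC50 from four-parameter fit; Dmax is maximum percent degradation.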

Regarding `Cc1cc2cc(n1)-c1cnn(C)c1OC[C@H]1CCC(C1)CN1/C(=N/C2=O)Nc2ccc(N3CCN(C4CCN(c5ccc(NC6CCC(=O)NC6=O)cc5C)CC4)CC3)cc21` (stereo partly shown) [Example 123, 3-((4-(4-(4-((7^1R,7^3S,E)-1^1,2^6-dimethyl-3-oxo-5^2,5^3-dihydro-1^1H,5^1H-9-oxa-4-aza-5(2,1)-benzo[d]imidazola-2(2,4)-pyridina-1(4,5)-pyrazola-7(1,3)-cyclopentanacyclononaphane-5^6-yl)piperazin-1-yl)piperidin-1-yl)-3-methylphenyl)amino)piperidine-2,6-dione], in assay [1], the “Imax (%)” value is recorded as 95.3% and the IC50 was determined as 16.3 nM. In addition, in assay [2], the DC50 was 2.14 nM and the Dmax turned out to be 81.6%. Further, in assay [3], the “Imax (%)” value is 100.4% and the IC50 turned out to be 0.7 nM. For the same molecule, in assay [4], half-maximal degradation (DC50) was put at 3.37 nM and the Dmax turned out to be 77.1%.

For the molecule `Cc1cc2cc(n1)-c1c(C)nn(C)c1OC[C@H]1CC[C@H](C1)CN1/C(=N/C2=O)Nc2ccc(N3C[C@H](C)N(C4CCN(c5cc(F)c([C@H]6CCC(=O)NC6=O)c(F)c5)CC4)C[C@H]3C)cc21` [Example 191, (R)-3-(4-(4-((2S,5R)-2,5-dimethyl-4-((7^1R,7^3S,E)-1^1,1^3,2^6-trimethyl-3-oxo-5^2,5^3-dihydro-1^1H,5^1H-9-oxa-4-aza-5(2,1)-benzo[d]imidazola-2(2,4)-pyridina-1(4,5)-pyrazola-7(1,3)-cyclopentanacyclononaphane-5^6-yl)piperazin-1-yl)piperidin-1-yl)-2,6-difluorophenyl)piperidine-2,6-dione], the “Imax (%)” value in assay [1] is recorded as 90.84%; in assay [3], 99.88%. Moreover, the IC50 in assay [1] is 0.528 nM; in assay [3] it was 0.769 nM. Also, the DC50 in assay [2] came to 0.73 nM; in assay [4] it was 2.94 nM. Besides, the Dmax in assay [2] was determined as 88.7%; in assay [4], 89.3%.

As to `Cc1cc2cc(n1)-c1cnn(C)c1OC[C@H]1CCC(C1)CN1/C(=N/C2=O)Nc2ccc(N3CCN(C4CCN(c5cc(F)c(C6CCC(=O)NC6=O)c(F)c5)CC4)[C@@H](C)C3)cc21` (stereo partly drawn) [Example 119, (R)-3-(4-(4-((S)-4-((7^1R,7^3S,E)-1^1,2^6-dimethyl-3-oxo-5^2,5^3-dihydro-1^1H,5^1H-9-oxa-4-aza-5(2,1)-benzo[d]imidazola-2(2,4)-pyridina-1(4,5)-pyrazola-7(1,3)-cyclopentanacyclononaphane-5^6-yl)-2-methylpiperazin-1-yl)piperidin-1-yl)-2,6-difluorophenyl)piperidine-2,6-dione], in assay [1], the “Imax (%)” value stood at 94.3% and it took 18.2 nM to reach half-maximal inhibition (IC50). Moreover, in assay [2], it took 2.3 nM to reach half-maximal degradation (DC50) and the Dmax turned out to be 74.6%. Further, in assay [3], the “Imax (%)” value came to 100.8% and it took 0.6 nM to reach half-maximal inhibition (IC50). Further, in assay [4], the DC50 worked out at 2.47 nM and the Dmax is 77%.

In the case of `COC[C@H]1CN(c2ccc3c(c2)N2CC4CC[C@H](COc5c(c(C)nn5C)-c5cc(cc(C)n5)C(=O)/N=C/2N3)C4)CCN1C1CCN(c2cc(F)c(C3CCC(=O)NC3=O)nc2C)CC1` (stereo partly drawn) [Example 90, 3-(3-fluoro-5-(4-((R)-2-(methoxymethyl)-4-((7^1R,7^3S,E)-1^1,1^3,2^6-trimethyl-3-oxo-5^2,5^3-dihydro-1^1H,5^1H-9-oxa-4-aza-5(2,1)-benzo[d]imidazola-2(2,4)-pyridina-1(4,5)-pyrazola-7(1,3)-cyclopentanacyclononaphane-5^6-yl)piperazin-1-yl)piperidin-1-yl)-6-methylpyridin-2-yl)piperidine-2,6-dione], the “Imax (%)” value is reported as 98.4% in assay [1] and 101.7% in assay [3]. The results for the IC50 in assay [1] and in assay [3] were 6.3 nM and 2.5 nM, respectively. Moreover, the DC50 in assay [2] amounted to 2.06 nM; in assay [4] it was 3.21 nM. In addition, the results for the Dmax in assay [2] and in assay [4] were 87.4% and 80.6%, respectively.

Consider `COC[C@H]1CN(c2ccc3c(c2)N2C[C@@H]4CC[C@H](COc5c(c(C)nn5C)-c5cc(cc(C)n5)C(=O)/N=C/2N3)C4)CCN1C1CCN(c2c(C)cc(C3CCC(=O)NC3=O)nc2C)CC1` (stereo partly drawn) [Example 141, 3-(5-(4-((R)-2-(methoxymethyl)-4-((7^1R,7^3S,E)-1^1,1^3,2^6-trimethyl-3-oxo-5^2,5^3-dihydro-1^1H,5^1H-9-oxa-4-aza-5(2,1)-benzo[d]imidazola-2(2,4)-pyridina-1(4,5)-pyrazola-7(1,3)-cyclopentanacyclononaphane-5^6-yl)piperazin-1-yl)piperidin-1-yl)-4,6-dimethylpyridin-2-yl)piperidine-2,6-dione], for which, in assay [1], the “Imax (%)” value amounted to 98.22% and the midpoint of inhibition, the IC50, lay at 7.7 nM. In assay [2], the DC50 is 0.804 nM and the Dmax is 66.1%. In assay [3], the “Imax (%)” value amounted to 100.38% and the IC50 was 0.825 nM. In addition, in assay [4], the DC50 turned out to be 1.13 nM and the Dmax was 87.5%.

With `COC[C@H]1CN(c2ccc3c(c2)N2CC4CC[C@H](COc5c(c(C(F)F)nn5C)-c5cc(cc(C)n5)C(=O)/N=C/2N3)C4)CCN1C1CCN(c2cc(F)c([C@H]3CCC(=O)NC3=O)c(F)c2)CC1` [Example 104, (R)-3-(4-(4-((R)-4-((7^1R,7^3S,E)-1^3-(difluoromethyl)-1^1,2^6-dimethyl-3-oxo-5^2,5^3-dihydro-1^1H,5^1H-9-oxa-4-aza-5(2,1)-benzo[d]imidazola-2(2,4)-pyridina-1(4,5)-pyrazola-7(1,3)-cyclopentanacyclononaphane-5^6-yl)-2-(methoxymethyl)piperazin-1-yl)piperidin-1-yl)-2,6-difluorophenyl)piperidine-2,6-dione], in assay [1], the “Imax (%)” value is given as 95% and the IC50 is 4.4 nM. In assay [2], it took 3.7 nM to reach half-maximal degradation (DC50) and the Dmax turned out to be 86.9%. Further, in assay [3], the “Imax (%)” value is 100.5% and the midpoint of inhibition, the IC50, lay at 2 nM. In assay [4], it took 4.1 nM to reach half-maximal degradation (DC50) and the Dmax came to 83.2%.

With `Cc1cc2cc(n1)-c1c(C)nn(C)c1OC[C@H]1CC[C@H](C1)CN1/C(=N/C2=O)Nc2ccc(N3CCN(C[C@@H]4CCN(c5cc(F)c([C@H]6CCC(=O)NC6=O)c(F)c5)C4)CC3)cc21` [Example 184, (R)-3-(2,6-difluoro-4-((S)-3-((4-((7^1R,7^3S,E)-1^1,1^3,2^6-trimethyl-3-oxo-5^2,5^3-dihydro-1^1H,5^1H-9-oxa-4-aza-5(2,1)-benzo[d]imidazola-2(2,4)-pyridina-1(4,5)-pyrazola-7(1,3)-cyclopentanacyclononaphane-5^6-yl)piperazin-1-yl)methyl)pyrrolidin-1-yl)phenyl)piperidine-2,6-dione], in assay [1], the “Imax (%)” value was 91.67% and the IC50 came out at 1.25 nM. Also, in assay [2], the DC50 stood at 3.16 nM and the Dmax was 89.3%. In addition, in assay [3], the “Imax (%)” value was 100.52% and the IC50 was 2.48 nM. Further, in assay [4], the DC50 was found to be 4.99 nM and the Dmax was found to be 90.1%.

Take `Cc1cc2cc(n1)-c1c(C)nn(C)c1OC[C@H]1CC[C@H](C1)CN1/C(=N/C2=O)Nc2ccc(N3CCN(CCC4CCN(c5cc(F)c([C@H]6CCC(=O)NC6=O)c(F)c5)CC4)CC3)cc21` [Example 183, (R)-3-(2,6-difluoro-4-(4-(2-(4-((7^1R,7^3S,E)-1^1,1^3,2^6-trimethyl-3-oxo-5^2,5^3-dihydro-1^1H,5^1H-9-oxa-4-aza-5(2,1)-benzo[d]imidazola-2(2,4)-pyridina-1(4,5)-pyrazola-7(1,3)-cyclopentanacyclononaphane-5^6-yl)piperazin-1-yl)ethyl)piperidin-1-yl)phenyl)piperidine-2,6-dione]: in assay [1], the “Imax (%)” value stood at 98.21% and half-maximal inhibition (IC50) required 5.32 nM. Besides, in assay [2], half-maximal degradation (DC50) was put at 5.83 nM and the Dmax came out at 91.2%. In assay [3], the “Imax (%)” value was determined as 99.41% and the IC50 was determined as 7.32 nM. Moreover, in assay [4], the DC50 came to 5.3 nM and the Dmax was determined as 91.6%.
